From patent US20250179059A1 (The Regents of the University of California, priority 2021, published 2025)
Like-named read-outs stand apart in the source and are kept apart here.

Key:
[1] = target: T1, human BRD4 bromodomain II (Homo sapiens, UniProt O60885); assay: Bromodomain binding assay (AlphaScreen), BRD4 BDII
T1 construct: human BRD4 bromodomain II [based on Genbank NM_058243, residues 349-460]; host or cells: E. coli
In short: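 E. coli-expressed N-terminal His6-tagged human BRD4 BDII (residues 349-460) or BDI (residues 44-170) was preincubated 30 min at room temperature with compound (10-point, 3-fold) in pH 7.5 HEPES buffer, 1% DMSO. Displacement of biotinylated tetra-acetylated H4 1-21 peptide was read by AlphaScreen, and IC50 came from curve fitting.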

[2] = test system: human SKM-1 acute myeloid leukemia cells; assay: SKM-1 antiproliferation cell-based assay (ATPlite); settings: Homo sapiens
Experimental: The cell-based assay indirectly measures cell density (and therefore proliferation and/or survival) by detecting total ATP concentration in a homogeneous format. Briefly, human SKM-1 acute myeloid leukemia cells (Leibniz Institute DSMZ #ACC 547) proliferating in log phase are collected by centrifugation, re-suspended in culture media (RPMI 1640/15% FBS/100 U/mL penicillin/100 μg/mL streptomycin) and diluted to 34722 cells/mL in media after counting. Then 180 μL cells are plated per well into a 96-well tissue-culture treated, clear bottom plate (Coming #3603). A 96-well compound plate (Corning #3357) is then generated by serial dilution of compounds into DMSO over nine concentrations and adding separate negative (DMSO) and positive control (reference compound) wells. Each compound concentration is tested in triplicate. First, 1 μL from each well of the compound plate is added to 99 μL culture media in an intermediate plate and mixed by pipetting. Then 20 μL of the diluted compounds in media are added to the assay plate containing the cells. The assay plate is maintained for 4 days in a standard cell culture incubator. At the end of the incubation period, 100 μL ATPlite Istep (PerkinElmer) is added to the assay plate wells, and the resulting luminescence is detected using an Infinite M1000 or a Spark multimode plate reader (Tecan). Data analysis is performed in Prism (GraphPad Software). For curve fitting, a non-linear regression, variable slope equation is used to calculate cellular IC50s.

[3] = AlphaScreen assay, Table C2, read-out: BRD4 BDII IC50
[4] = SKM-1, 96 h, SKM-1 antiproliferation assay, 4 days, Table C2
[5] = BRD4 BDII AlphaScreen assay, read-out: BRD4 BD2 IC50
[6] = SKM-1, SKM-1 antiproliferation assay

Row | IC50 [1, 3] [nM] | GI50 [2, 4] [nM] | IC50 [1, 5] [nM] | GI50 [2, 6] [nM] | SMILES
1 | 0.01 to 1 | 30 to 300 | – | – | Cn1ccn(-c2ccc(-c3cc(F)cc(-c4ccnc(N5CCC6(CCO6)C5)c4)c3O)cc2Cl)c1=O (stereo not shown) [Example 674, 1-(3′-(2-(1-oxa-6-azaspiro[3.4]octan-6-yl)pyridin-4-yl)-3-chloro-5′-fluoro-2′-hydroxy-[1,1′-biphenyl]-4-yl)-3-methyl-1H-imidazol-2(3H)-one]
2 | 0.01 to 1 | 0.3 to 30 | – | – | COCCC1CN(c2cc(-c3cc(F)cc(-c4ccc(-n5ccn(C)c5=O)c(Cl)c4)c3O)ccn2)CCN1 (stereo not shown) [Example 676, 1-(3-chloro-5′-fluoro-2′-hydroxy-3′-(2-(3-(2-methoxyethyl)piperazin-1-yl)pyridin-4-yl)-[1,1′-biphenyl]-4-yl)-3-methyl-1H-imidazol-2(3H)-one]
3 | 0.01 to 1 | 30 to 300 | – | – | Cn1ccn(-c2ccc(-c3cc(F)cc(-c4cncc(N5C[C@@H](N)[C@H](O)C5)c4)c3O)cc2Cl)c1=O [Example 491, 1-(3′-(5-((3R,4R)-3-amino-4-hydroxypyrrolidin-1-yl)pyridin-3-yl)-3-chloro-5′-fluoro-2′-hydroxy-[1,1′-biphenyl]-4-yl)-3-methyl-1H-imidazol-2(3H)-one]
4 | > 100 | ≥ 3000 | – | – | CN1CCN(c2ccc(-c3cc(C#N)cc(-c4ccnc(N5CCNCC5)c4)c3O)cc2Cl)C1=O [Example 314, 3′-chloro-6-hydroxy-4′-(3-methyl-2-oxoimidazolidin-1-yl)-5-(2-(piperazin-1-yl)pyridin-4-yl)-[1,1′-biphenyl]-3-carbonitrile]
5 | 0.01 to 1 | 0.3 to 30 | – | – | Cn1ccn(-c2ccc(-c3cc(F)cc(-c4ccnc(N5CCC(O)(CO)C5)c4)c3O)cc2Cl)c1=O (stereo not shown) [Example 731, 1-(3-chloro-5′-fluoro-2′-hydroxy-3′-(2-(3-hydroxy-3-(hydroxymethyl)pyrrolidin-1-yl)pyridin-4-yl)-[1,1′-biphenyl]-4-yl)-3-methyl-1H-imidazol-2(3H)-one]
6 | 0.01 to 1 | 0.3 to 30 | – | – | Cn1ccn(-c2ccc(-c3cc(F)cc(-c4cc(N5CCN6CCCCC6C5)c5cn[nH]c5c4)c3O)cc2Cl)c1=O (stereo not shown) [Example 601, 1-(3-chloro-5′-fluoro-3′-(4-(hexahydro-1H-pyrido[1,2-a]pyrazin-2(6H)-yl)-1H-indazol-6-yl)-2′-hydroxy-[1,1′-biphenyl]-4-yl)-3-methyl-1H-imidazol-2(3H)-one]
7 | – | – | > 100 | 300 to 3000 | Cn1ccn(-c2ccc(-c3cc(F)cc(-c4cccc(N5CCN(C(C)(C)C)CC5)c4)c3O)nc2)c1=O [Example 944, 1-(6-(3′-(4-(tert-butyl)piperazin-1-yl)-5-fluoro-2-hydroxy-[1,1′-biphenyl]-3-yl)pyridin-3-yl)-3-methyl-1H-imidazol-2(3H)-one]
8 | 0.01 to 1 | 0.3 to 30 | – | – | CCN1CCN(c2cc(-c3cc(F)cc(-c4ccc(-n5ccn(C)c5=O)c(Cl)c4)c3O)cc3[nH]ncc23)CC1 [Example 582]
9 | 10 to 100 | ≥ 3000 | – | – | CN1CCN(c2ccc(-c3cc(OC(F)(F)F)cc(-c4ccnc(N5CCNCC5)c4)c3O)cc2Cl)C1=O [Example 309, l-(3-chloro-2′-hydroxy-3′-(2-(piperazin-l-yl)pyridin-4-yl)-5′-(trifluoromethoxy)-[1,1′-biphenyl]-4-yl)-3-methylimidazolidin-2-one]
10 | – | – | 0.01 to 1 | 0.3 to 30 | Cc1ncc(-c2cc(F)cc(-c3ccc(-n4ccn(C)c4=O)c(Cl)c3)c2O)cc1N1CCC2(CCCN2C(C)C)C1 (stereo not shown) [Example 911, 1-(3-chloro-5′-fluoro-2′-hydroxy-3′-(5-(1-isopropyl-1,7-diazaspiro[4.4]nonan-7-yl)-6-methylpyridin-3-yl)-[1,1′-biphenyl]-4-yl)-3-methyl-1H-imidazol-2(3H)-one]
11 | – | – | 0.01 to 1 | 0.3 to 30 | CCc1ncc(-c2cc(F)cc(-c3ccc(-n4ccn(C)c4=O)c(Cl)c3)c2O)cc1N1CC[C@@](C)(O)C1 [Example 852, (R)-1-(3-Chloro-3′-(6-ethyl-5-(3-hydroxy-3-methylpyrrolidin-1-yl)pyridin-3-yl)-5′-fluoro-2′-hydroxy-[1,1′-biphenyl]-4-yl)-3-methyl-1H-imidazol-2(3H)-one]
12 | – | – | 10 to 100 | 30 to 300 | Cc1cc(-c2ccc(-n3cc[nH]c3=O)c(Cl)c2)c(O)c(-c2cccc(N3CCN(C(C)(C)C)CC3)c2)n1 [Example 1035, 1-(4-(2-(3-(4-(tert-butyl)piperazin-1-yl)phenyl)-3-hydroxy-6-methylpyridin-4-yl)-2-chlorophenyl)-1,3-dihydro-2H-imidazol-2-one]
13 | 1 to 10 | 300 to 3000 | – | – | CC1CCN(c2ccc(-c3cccc(-c4ccnc(N5CCNCC5)c4)c3O)cc2Cl)C1=O (stereo not shown) [Example 328, 1-(3-chloro-2′-hydroxy-3′-(2-(piperazin-1-yl)pyridin-4-yl)-[1,1′-biphenyl]-4-yl)-3-methylpyrrolidin-2-one]
14 | > 100 | 30 to 300 | – | – | CSc1cc(-c2cc(F)cc(-c3cnc(SC)c(N4CCN(C(C)C)CC4)c3)c2O)ccc1-n1ccn(C)c1=O [Example 818, 1-(5′-fluoro-2′-hydroxy-3′-(5-(4-isopropylpiperazin-1-yl)-6-(methylthio)pyridin-3-yl)-3-(methylthio)-[1,1′-biphenyl]-4-yl)-3-methyl-1H-imidazol-2(3H)-one]
15 | – | – | 1 to 10 | 0.3 to 30 | Cc1cc(-c2ccc(-n3ccn(C)c3=O)c(Cl)c2)c(O)c(-c2ccnc(N3CC[C@](C)(O)C3)c2)n1 [Example 995, (S)-1-(2-chloro-4-(3-hydroxy-2′-(3-hydroxy-3-methylpyrrolidin-1-yl)-6-methyl-[2,4′-bipyridin]-4-yl)phenyl)-3-methyl-1H-imidazol-2(3H)-one]
16 | 1 to 10 | 0.3 to 30 | – | – | COc1ncc(-c2cc(F)cc(-c3ccc(-n4ccn(C)c4=O)c(Cl)c3)c2O)cc1N1CC(C)(O)C1 [Example 834, 1-(3-chloro-5′-fluoro-2′-hydroxy-3′-(5-(3-hydroxy-3-methylazetidin-1-yl)-6-methoxypyridin-3-yl)-[1,1′-biphenyl]-4-yl)-3-methyl-1H-imidazol-2(3H)-one]
17 | 1 to 10 | 0.3 to 30 | – | – | COc1cc(-c2cc(F)cc(-c3ccc(-n4ccn(C)c4=O)c(Cl)c3)c2O)cc(N2CCN(C(C)(C)C)CC2)n1 [Example 732, 1-(3′-(2-(4-(tert-butyl)piperazin-1-yl)-6-methoxypyridin-4-yl)-3-chloro-5′-fluoro-2′-hydroxy-[1,1′-biphenyl]-4-yl)-3-methyl-1H-imidazol-2(3H)-one]
18 | – | – | – | 0.3 to 30 | Cc1cc(-c2cc(F)nc(-c3cccc(N4CCN(C(C)(C)C)CC4)c3)c2O)ccc1-n1ccn(C)c1=O [Example 1050, 1-(4-(2-(3-(4-(tert-butyl)piperazin-1-yl)phenyl)-6-fluoro-3-hydroxypyridin-4-yl)-2-methylphenyl)-3-methyl-1,3-dihydro-2H-imidazol-2-one]
19 | – | – | – | 0.3 to 30 | Cc1cc(-c2ccc(-n3ccsc3=O)c(Cl)c2)c(O)c(-c2cccc(N3CCN(C(C)(C)C)CC3)c2)n1 [Example 1053, 3-(4-(2-(3-(4-(tert-butyl)piperazin-1-yl)phenyl)-3-hydroxy-6-methylpyridin-4-yl)-2-chlorophenyl)thiazol-2(3H)-one]
20 | – | – | – | 30 to 300 | CC(C)(C)N1CCN(c2cccc(-c3cc(F)cc(-c4ccc(N5CCCC5=O)c(Cl)c4)c3O)c2)CC1 [Example 1045, 1-(3″-(4-(tert-Butyl)piperazin-1-yl)-3-chloro-5′-fluoro-2′-hydroxy-[1,1′:3′,1″-terphenyl]-4-yl)pyrrolidin-2-one]
21 | – | – | – | 0.3 to 30 | [2H]C([2H])([2H])n1ccn(-c2ccc(-c3cc(F)nc(-c4cccc(N5CCN(C(C)(C)C)CC5)c4)c3O)cc2Cl)c1=O [Example 1047, 1-(4-(2-(3-(4-(tert-butyl)piperazin-1-yl)phenyl)-6-fluoro-3-hydroxypyridin-4-yl)-2-chlorophenyl)-3-(methyl-d3)-1,3-dihydro-2H-imidazol-2-one]
22 | – | – | – | 0.3 to 30 | CC(C)(C)N1CCN(c2cccc(-c3cc(F)cc(-c4ccc(-n5ccsc5=O)c(Cl)c4)c3O)c2)CC1 [Example 1052, 3-(3″-(4-(tert-butyl)piperazin-1-yl)-3-chloro-5′-fluoro-2′-hydroxy-[1,1′:3′,1″-terphenyl]-4-yl)thiazol-2(3H)-one]
23 | – | – | – | 30 to 300 | Cc1cc(-c2ccc(-n3ccn(C)c3=O)c(Cl)c2)c(O)c(-c2ccc(=O)n(C3CCN(C(C)C)CC3)c2)n1 [Example 1048, 4-(3-Chloro-4-(3-methyl-2-oxo-2,3-dihydro-1H-imidazol-1-yl)phenyl)-3-hydroxy-1′-(1-isopropylpiperidin-4-yl)-6-methyl-[2,3′-bipyridin]-6′(1′H)-one]
